Entries after “also recorded” stand apart in the source; their conditions may differ. Like-named read-outs stand apart in the source and are kept apart here.
What was measured:
[1] = Plasma drug-to-lipid ratio 24 hours after intravenous administration of daunorubicin liposomes; type: in vivo; details: DSPC/DSPE-PEG2000 (95:5) liposomes with citrate pH 4.0, CuSO4 or MnSO4; Balb/c mice, lipid 100 mg/kg, daunorubicin 10 mg/kg
Procedure: DSPC/DSPE-PEG2000 liposomes were prepared as described and extruded at 75° C. The external solution was exchanged to HBS by dialysis against HBS. […] Plasma lipid concentrations were determined by liquid scintillation counting. […] The resulting mixture was mixed and 2 mL of 1:1 isopropanol/chloroform was added followed by vortexing. The samples were frozen at −20° C. overnight or −80° C. for 1 hour to promote protein aggregation, brought to room temperature, vortexed and centrifuged at 3000 rpm for 10 minutes.

[2] = Active (metal-based, citrate or ionophore) loading of drug into liposomes; spin column, drug-to-lipid ratio; type: physicochemical
[3] = as above; type: physicochemical; remark: listed apart in the source
Procedure: Lipids were dissolved in chloroform solution and subsequently dried under a stream of nitrogen gas and placed in a vacuum pump to remove solvent. Unless otherwise specified, trace levels of radioactive lipid 3H-CHE were added to quantify lipid during the formulation process. The resulting lipid film was placed under high vacuum for a minimum of 2 hours. The lipid film was hydrated in the solution indicated to form multilamellar vesicles (MLVs). The resulting preparation was extruded 10 times through stacked polycarbonate filters with an extrusion apparatus (Lipex Biomembranes, Vancouver, BC) to achieve a mean liposome size between 80 and 150 nm. All constituent lipids of liposomes are reported in mole %.
At various time points after initiation of drug loading, aliquots were removed and passed through a Sephadex G-50 spin column to separate free from encapsulated drug. To a specified volume of eluant, Triton X-100 or N-ocyl beta-D-glucopyranoside (OGP) was added to solubilize the liposomes. Following addition of detergent, the mixture was heated to the cloud point of the detergent and allowed to cool to room temperature before measurement of the absorbance or fluorescence. Drug concentrations were calculated by comparison to a standard curve.
In order to determine whether copper loading of irinotecan in the absence of a pH gradient could occur using a cholesterol-free formulation, DSPC/DSPG (80:20 mole ratio) liposomes containing copper(II) gluconate were prepared with an external and internal pH of 7.4. […] The lipid films were hydrated in 100 mM Cu(II) gluconate adjusted to pH 7.4 with triethanolamine (TEA) and extruded at 70° C. […] Irinotecan was added to the liposome preparation at a 0.1:1 drug-to-lipid mole ratio and incubated at 50° C. The extent of drug loading was determined as described in the methods by measuring absorbance at 370 nm and lipid levels were determined by liquid scintillation counting.
Loading of daunorubicin into DSPC/DSPG (90:10 mole ratio) liposomes containing encapsulated CuSO4 buffered to pH 7.4 was also investigated. […] A solution of 150 mM CuSO4, 20 mM histidine (adjusted to pH 7.4 using TEA), was employed as the hydration medium and MLVs were extruded at 70° C. […] Daunorubicin was loaded at a 0.1:1 drug/lipid weight ratio. A drug-to-lipid ratio at various time points during loading was determined by measuring absorbance at 480 nm after solubilization in detergent to quantify daunorubicin as described; lipid levels were determined by liquid scintillation counting.
The liposomes were prepared as described in the methods by hydrating lipid films in a solution of 100 mM copper(II) gluconate adjusted to pH 7.4 with TEA. Liposomes were extruded at 65° C. and the external buffer of the liposomes was exchanged to SHE, pH 7.4 by tangential flow dialysis. Liposomes were incubated with irinotecan at a 0.1:1 drug-to-lipid weight ratio at 50° C. and the extent of drug loading was determined as described by measuring absorbance at 370 nm after solubilization by detergent.
In addition to copper loading, loading of drug using MnSO4 containing liposomes in the absence of a pH gradient was also investigated. […] Lipids films were prepared as described and hydrated in 300 mM MnSO4 buffered to pH 7.4 with 20 mM imidazole (initial pH was adjusted to 7.4 with concentrated HCl) and extrusion was carried out at 70° C. The samples were run down a Sephadex G-50 column to exchange the exterior buffer with SHE, pH 7.4.

In the case of `COc1cccc2c1C(=O)c1c(O)c3c(c(O)c1C2=O)C[C@@](O)(C(C)=O)C[C@@H]3O[C@H]1C[C@H](N)[C@H](O)[C@H](C)O1` [daunorubicin], the “plasma drug-to-lipid ratio 24 hours after intravenous administration (in words)” value [1] is reported as “differing plasma drug-to-lipid ratios”, the drug encapsulation [2] is reported as 80% and the encapsulation [2] is reported as greater than 95%. For the same molecule, the added drug encapsulated [3] was greater than 90%, the “encapsulation compared to CuCl2 (in words)” value [3] was “not as efficient” and the “loading (in words)” value [3] was “most efficient; also recorded: occurred to a lesser extent; also recorded: less efficient”. For the same molecule, the “daunorubicin to lipid ratio achieved” value ([3]; DSPC/DSPE-PEG2000 (95:5), 300 mM MnSO4, loading temperature 60° C.) was 0.07 mol:mol, the drug encapsulation ([3]; DSPC/DSPE-PEG2000 (95:5), 300 mM NiSO4, SHE pH 7.4, weight ratio 0.2:1, 60° C., within 5 minutes) was “greater than 75%” and the “loading (in words)” value ([3]; pH 7.4) was “efficiently load”. The uptake into liposomes ([3]; pH 7.4) was 100%.
